In patent US11427567B2, “Imidazolyl pyrimidinylamine compounds as CDK2 inhibitors” (Incyte Corporation, priority 2019, dated 2022) one finds IC50 data, which are given here for 25 molecules.

The target in this assay is CDK2/Cyclin E1 (Homo sapiens (Human), UniProt P24941). As to the kind of experiment: CDK2/Cyclin E1 HTRF enzyme activity assay (Example A). The class given is biochemical. Conditions: 1 mM ATP. Here is the method: Assays were conducted in white 384-well polystyrene plates in a final reaction volume of 8 μL. […] HTRF signals were read after 1 hour at room temperature on a PHERAstar FS plate reader (BMG Labtech). Data was analyzed with IDBS XLFit and GraphPad Prism 5.0 software using a three or four parameter dose response curve to determine IC50 for each compound.
(In TR-FRET formats the signal depends on donor and acceptor labels being close together.)

SMILES strings stand for the structures.

`C[C@@H]1CN(c2ccc(-n3cnc(-c4nc(NC5CCN(S(C)(=O)=O)CC5)ncc4C(F)(F)F)c3)c(Cl)c2)CCN1` [Example 141, (R)-4-(1-(2-Chloro-4-(3-methyl-piperazin-1-yl)-phenyl)-1H-imidazol-4-yl)-N-(1-(methyl-sulfonyl)piperidin-4-yl)-5-(trifluoro-methyl)pyrimidin-2-amine]: the IC50 was at most 50 nM.
The molecule `CN1CCN(c2ccc(-n3cnc(-c4nc(NC5CCN(S(C)(=O)=O)CC5)ncc4C(F)(F)F)c3)c(Cl)c2)CC1=O` [Example 142, 4-(3-Chloro-4-(4-(2-((1-(methyl-sulfonyl)piperidin-4-yl)amino)-5-(trifluoromethyl)-pyrimidin-4-yl)-1H-imidazol-1-yl)phenyl)-1-methylpiperazin-2-one] registered an IC50 of at most 50 nM.
The same measure for `CN(C)C1CCN(c2ccc(-n3cnc(-c4nc(NC5CCN(S(C)(=O)=O)CC5)ncc4C(F)(F)F)c3)c(Cl)c2)C1` (stereo not shown) [Example 143, 4-(1-(2-Chloro-4-(3-(dimethylamino)-pyrrolidin-1-yl)-phenyl)-1H-imidazol-4-yl)-N-(1-(methylsulfonyl)-piperidin-4-yl)-5-(trifluoromethyl)-pyrimidin-2-amine]: at most 50 nM; for `COCCNc1ccc(-n2cnc(-c3nc(NC4CCN(S(C)(=O)=O)CC4)ncc3C(F)(F)F)c2)c(Cl)c1` [Example 144, 4-(1-(2-Chloro-4-((2-methoxyethyl)-amino)phenyl)-1H-imidazol-4-yl)-N-(1-(methylsulfonyl)-piperidin-4-yl)-5-(trifluoromethyl)-pyrimidin-2-amine]: at most 50 nM.
`CN(C)C1CCN(c2ccc(-n3cnc(-c4nc(NC5CCN(S(C)(=O)=O)CC5)ncc4C(F)(F)F)c3)c(Cl)c2)CC1` [Example 145, 4-(1-(2-Chloro-4-(4-(dimethylamino)-piperidin-1-yl)-phenyl)-1H-imidazol-4-yl)-N-(1-(methylsulfonyl)-piperidin-4-yl)-5-(trifluoromethyl)-pyrimidin-2-amine] yielded an IC50 of at most 50 nM.
The same measure for `CS(=O)(=O)N1CCC(Nc2ncc(C(F)(F)F)c(-c3cn(-c4ccc(N5CCC(N6CCCC6)CC5)cc4Cl)cn3)n2)CC1` [Example 146, 4-(1-(2-Chloro-4-(4-(pyrrolidin-1-yl)piperidin-1-yl)-phenyl)-1H-imidazol-4-yl)-N-(1-(methylsulfonyl)-piperidin-4-yl)-5-(trifluoromethyl)-pyrimidin-2-amine]: at most 50 nM.
In the case of `CN1CCN(c2ccc(-n3cnc(-c4nc(NC5CCN(S(C)(=O)=O)CC5)ncc4C(F)(F)F)c3)c(Cl)c2)C1=O` [Example 147, 1-(3-Chloro-4-(4-(2-((1-(methyl-sulfonyl)piperidin-4-yl)amino)-5-(trifluoromethyl)-pyrimidin-4-yl)-1H-imidazol-1-yl)-phenyl)-3-methyl-imidazolidin-2-one] it was at most 50 nM.
The same measure for `CN1CCN(c2ccc(-n3cnc(-c4nc(NC5CCN(S(C)(=O)=O)CC5)ncc4C(F)(F)F)c3)c(Cl)c2)CC1` [Example 148, 4-(1-(2-Chloro-4-(4-methylpiperazin-1-yl)phenyl)-1H-imidazol-4-yl)-N-(1-(methylsulfonyl)-piperidin-4-yl)-5-(trifluoromethyl)-pyrimidin-2-amine]: at most 50 nM; for `CN(C)CCN(C)c1ccc(-n2cnc(-c3nc(NC4CCN(S(C)(=O)=O)CC4)ncc3C(F)(F)F)c2)c(Cl)c1` [Example 149, N^1-(3-Chloro-4-(4-(2-((1-(methyl-sulfonyl)piperidin-4-yl)amino)-5-(trifluoromethyl)-pyrimidin-4-yl)-1H-imidazol-1-yl)-phenyl)-N1,N2,N2-trimethylethane-1,2-diamine]: at most 50 nM.
For the molecule `CS(=O)(=O)N1CCC(Nc2ncc(C(F)(F)F)c(-c3cn(-c4ccc(N5CCNC(=O)C5)cc4Cl)cn3)n2)CC1` [Example 150, 4-(3-Chloro-4-(4-(2-((1-(methyl-sulfonyl)piperidin-4-yl)amino)-5-(trifluoromethyl)-pyrimidin-4-yl)-1H-imidazol-1-yl)-phenyl)piperazin-2-one], the IC50 was at most 50 nM.
The same measure for `COc1ccc(-n2cnc(-c3nc(NC4CCN(S(C)(=O)=O)CC4)ncc3C(F)(F)F)c2)c(Cl)c1` [Example 151, 4-(1-(2-Chloro-4-methoxyphenyl)-1H-imidazol-4-yl)-N-(1-(methylsulfonyl)piperidin-4-yl)-5-(trifluoromethyl)pyrimidin-2-amine]: at most 50 nM.
In the case of `Cc1ccc(-n2cnc(-c3nc(N[C@H]4CCN(S(=O)(=O)c5cn(C)cn5)C[C@H]4C)ncc3C(F)(F)F)c2)c(C#N)n1` [Example 152, 6-Methyl-3-(4-(2-(((3R,4S)-3-methyl-1-((1-methyl-1H-imidazol-4-yl)sulfonyl)piperidin-4-yl)amino)-5-(trifluoromethyl)pyrimidin-4-yl)-1H-imidazol-1-yl)picolinonitrile] it was at most 50 nM.
The same measure for `Cc1ccc(-n2cnc(-c3nc(N[C@H]4CCN(S(=O)(=O)c5cnc(N)nc5)C[C@H]4C)ncc3C(F)(F)F)c2)c(C#N)n1` [Example 153, 3-(4-(2-(((3R,4S)-1-((2-Amino-pyrimidin-5-yl)-sulfonyl)-3-methylpiperidin-4-yl)amino)-5-(trifluoromethyl)-pyrimidin-4-yl)-1H-imidazol-1-yl)-6-methyl-picolinonitrile]: at most 50 nM; for `Cc1ccc(-n2cnc(-c3nc(N[C@H]4CCN(S(=O)(=O)c5ccn(C)n5)C[C@H]4C)ncc3C(F)(F)F)c2)c(C#N)n1` [Example 154, 6-Methyl-3-(4-(2-(((3R,4S)-3-methyl-1-((1-methyl-1H-pyrazol-3-yl)-sulfonyl)piperidin-4-yl)amino)-5-(trifluoromethyl)-pyrimidin-4-yl)-1H-imidazol-1-yl)picolinonitrile]: at most 50 nM; for `C[C@@H]1CN(S(=O)(=O)c2cn(C)cn2)CC[C@@H]1Nc1ncc(C(F)(F)F)c(-c2cn(-c3cccc(C#N)c3Cl)cn2)n1` [Example 155, 2-Chloro-3-(4-(2-(((3R,4S)-3-methyl-1-((1-methyl-1H-imidazol-4-yl)sulfonyl)piperidin-4-yl)amino)-5-(trifluoromethyl)pyrimidin-4-yl)-1H-imidazol-1-yl)benzonitrile]: at most 50 nM.
In the case of `C[C@@H]1CN(S(C)(=O)=O)CC[C@@H]1Nc1ncc(C(F)(F)F)c(-c2cn(-c3ccc4nccnc4c3Br)cn2)n1` [Example 156, 4-(1-(5-Bromoquinoxalin-6-yl)-1H-imidazol-4-yl)-N-((3R,4S)-3-methyl-1-(methylsulfonyl)piperidin-4-yl)-5-(trifluoromethyl)pyrimidin-2-amine], the IC50 is at most 50 nM.
The same measure for `CN(C)CCc1ccc(-n2cnc(-c3nc(NC4CCN(S(C)(=O)=O)CC4)ncc3C(F)(F)F)c2)c(Cl)c1` [Example 157, 4-(1-(2-Chloro-4-(2-(dimethylamino)ethyl)phenyl)-1H-imidazol-4-yl)-N-(1-(methylsulfonyl)piperidin-4-yl)-5-(trifluoromethyl)pyrimidin-2-amine]: at most 50 nM; for `CS(=O)(=O)N1CCC(Nc2ncc(C(F)(F)F)c(-c3cn(-c4ccc(CCN5CCC5)cc4Cl)cn3)n2)CC1` [Example 158, 4-(1-(4-(2-(Azetidin-1-yl)ethyl)-2-chloro-phenyl)-1H-imidazol-4-yl)-N-(1-(methyl-sulfonyl)piperidin-4-yl)-5-(trifluoro-methyl)pyrimidin-2-amine]: at most 50 nM; for `CN1CCN(CCc2ccc(-n3cnc(-c4nc(NC5CCN(S(C)(=O)=O)CC5)ncc4C(F)(F)F)c3)c(Cl)c2)CC1=O` [Example 159, 4-(3-Chloro-4-(4-(2-((1-(methylsulfonyl)-piperidin-4-yl)-amino)-5-(trifluoro-methyl)pyrimidin-4-yl)-1H-imidazol-1-yl)phenethyl)-1-methylpiperazin-2-one]: at most 50 nM.
In the case of `Cc1nc(-c2nc(NC3CCN(S(C)(=O)=O)CC3)ncc2C(F)(F)F)cn1-c1ccc(C2CNC2)cc1F` [Example 160, 4-(1-(4-(Azetidin-3-yl)-2-fluorophenyl)-2-methyl-1H-imidazol-4-yl)-N-(1-(methylsulfonyl)piperidin-4-yl)-5-(trifluoromethyl)pyrimidin-2-amine] it was at most 50 nM; in that of `Cc1nc(-c2nc(NC3CCN(S(C)(=O)=O)CC3)ncc2C(F)(F)F)cn1-c1ccc(C2CCN(C)CC2)cc1F` [Example 161, 4-(1-(2-Fluoro-4-(1-methylpiperidin-4-yl)phenyl)-2-methyl-1H-imidazol-4-yl)-N-(1-(methyl-sulfonyl)piperidin-4-yl)-5-(trifluoro-methyl)pyrimidin-2-amine], at most 50 nM.
In the case of `CS(=O)(=O)N1CCC(Nc2ncc(C(F)(F)F)c(-c3cn(-c4ccc5nccnc5c4Br)cn3)n2)CC1` [Example 162, 4-(1-(5-Bromoquinoxalin-6-yl)-1H-imidazol-4-yl)-N-(1-(methylsulfonyl)piperidin-4-yl)-5-(trifluoromethyl)pyrimidin-2-amine] it was at most 50 nM; in that of `CS(=O)(=O)N1CCC(Nc2ncc(C(F)(F)F)c(-c3cn(-c4ccc5cccnc5c4Br)cn3)n2)CC1` [Example 163, 4-(1-(8-Bromoquinolin-7-yl)-1H-imidazol-4-yl)-N-(1-(methyl-sulfonyl)piperidin-4-yl)-5-(trifluoromethyl)-pyrimidin-2-amine], at most 50 nM; in that of `CS(=O)(=O)N1CCC(Nc2ncc(C(F)(F)F)c(-c3cn(-c4ccc5ncccc5c4Br)cn3)n2)CC1` [Example 164, 4-(1-(5-Bromoquinolin-6-yl)-1H-imidazol-4-yl)-N-(1-(methyl-sulfonyl)piperidin-4-yl)-5-(trifluoromethyl)-pyrimidin-2-amine], at most 50 nM.
With `CS(=O)(=O)N1CCC(Nc2ncc(C(F)(F)F)c(-c3cn(-c4ccc5cccnc5c4Cl)cn3)n2)CC1` [Example 165, 4-(1-(8-Chloroquinolin-7-yl)-1H-imidazol-4-yl)-N-(1-(methyl-sulfonyl)piperidin-4-yl)-5-(trifluoromethyl)-pyrimidin-2-amine], the concentration for half-maximal inhibition (IC50) was at most 50 nM.

Broadly, the IC50 is the midpoint of a concentration-inhibition curve. A high value points to weaker potency.
